{"source": "ChEMBL document CHEMBL4184162", "about": "“Hybrid DNA i-motif: Aminoethylprolyl-PNA (pC5) enhance the stability of DNA (dC5) i-motif structure” (Bioorg Med Chem Lett, 2017)", "key": {"[1]": {"experiment": "Stabilization of i-motif DNA (unknown origin) assessed as change in melting temperature at 22.5 uM at pH 4.5 in presence of DC5 by UV-based analysis"}, "[2]": {"experiment": "Stabilization of i-motif DNA (unknown origin) assessed as change in melting temperature at 22.5 uM at pH 5 in presence of DC5 by UV-based analysis"}, "[3]": {"experiment": "Stabilization of i-motif DNA (unknown origin) assessed as change in melting temperature at 22.5 uM at pH 5.5 in presence of DC5 by UV-based analysis"}, "[4]": {"experiment": "Stabilization of i-motif DNA (unknown origin) assessed as change in melting temperature at 22.5 uM at pH 6 in presence of DC5 by UV-based analysis"}, "[5]": {"experiment": "Stabilization of i-motif DNA (unknown origin) at 22.5 uM at pH 4 to 6 by CD-spectra analysis"}}, "note": "Active and inactive are the calls of the source. The calls are words filed in the database; no cut-off is given here.", "data": [{"smiles": "CC(=O)NCCN1C[C@@H](n2ccc(N)nc2=O)C[C@H]1C(=O)NCCN1C[C@@H](n2ccc(N)nc2=O)C[C@H]1C(=O)NCCN1C[C@@H](n2ccc(N)nc2=O)C[C@H]1C(=O)NCCN1C[C@@H](n2ccc(N)nc2=O)C[C@H]1C(=O)NCCN1C[C@@H](n2ccc(N)nc2=O)C[C@H]1C(=O)NCCC(N)=O", "values": [{"measurement": "ΔTm", "setting": "[1]", "result": 15.3, "unit": "°C"}, {"measurement": "ΔTm", "setting": "[2]", "result": 17.9, "unit": "°C"}, {"measurement": "ΔTm", "setting": "[3]", "result": 8.85, "unit": "°C"}, {"measurement": "ΔTm", "setting": "[4]", "result": 13.2, "unit": "°C"}, {"measurement": "Activity", "setting": "[5]", "result": "Active"}]}]}
